This is an account of results in patent publication US20250090681A1, “NEODEGRADER CONJUGATES” (Orum Therapeutics, Inc., priority 2021, published 2025).

This assay has as its target T1, GSPT1 (Homo sapiens, UniProt P15170+Q96SW2).
T1 construct: Whole cell lysates were prepared from MV4-11 CD33-positive AML cells; endogenous in cells; host or cells: MV4-11 (CD33-positive AML cells)
Description: GSPT1 degradation by western blot in MV4-11 cells. Particulars: FIG. 8. Format: cell-based. The text has this:
GSPT1 was probed by commercially available rabbit-anti-GSPT1 antibody (Abcam) followed by anti-rabbit HRP conjugated secondary antibody (Cell Signaling Technology) and detected by chemiluminescent substrate (ThermoFisher). PVDF membrane was then stripped and re-probed with beta-Actin-HRP conjugated antibody (Cell Signaling Technology).
On the technique in general: In western blotting, separated proteins are transferred to a membrane and probed.

T1 sequence (P15170 whole entry): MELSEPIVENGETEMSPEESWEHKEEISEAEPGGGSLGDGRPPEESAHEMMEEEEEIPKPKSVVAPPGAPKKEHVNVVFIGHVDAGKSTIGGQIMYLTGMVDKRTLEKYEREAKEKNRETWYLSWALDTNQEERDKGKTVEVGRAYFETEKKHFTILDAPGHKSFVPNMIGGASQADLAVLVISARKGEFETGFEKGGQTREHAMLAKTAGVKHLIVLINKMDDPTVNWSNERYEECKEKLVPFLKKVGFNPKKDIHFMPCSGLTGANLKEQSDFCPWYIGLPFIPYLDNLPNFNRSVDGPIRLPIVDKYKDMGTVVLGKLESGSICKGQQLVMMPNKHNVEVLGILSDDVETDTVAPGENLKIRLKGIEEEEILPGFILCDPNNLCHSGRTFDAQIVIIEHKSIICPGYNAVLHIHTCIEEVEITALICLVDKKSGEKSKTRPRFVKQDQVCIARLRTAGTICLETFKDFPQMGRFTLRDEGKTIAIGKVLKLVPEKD
T1 sequence (Q96SW2 whole entry): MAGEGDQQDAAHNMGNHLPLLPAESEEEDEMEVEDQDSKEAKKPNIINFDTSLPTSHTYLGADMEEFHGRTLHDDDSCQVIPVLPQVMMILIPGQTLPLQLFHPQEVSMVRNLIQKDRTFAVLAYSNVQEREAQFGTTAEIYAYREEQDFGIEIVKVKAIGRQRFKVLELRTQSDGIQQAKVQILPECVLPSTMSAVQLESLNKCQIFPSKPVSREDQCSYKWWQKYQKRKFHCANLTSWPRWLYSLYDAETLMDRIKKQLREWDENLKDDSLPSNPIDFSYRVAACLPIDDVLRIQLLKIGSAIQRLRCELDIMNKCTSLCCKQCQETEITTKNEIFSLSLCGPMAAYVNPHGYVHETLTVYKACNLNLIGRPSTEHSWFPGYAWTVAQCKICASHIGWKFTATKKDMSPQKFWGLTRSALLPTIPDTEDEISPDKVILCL
T1 sequence (Q16531 whole entry partner): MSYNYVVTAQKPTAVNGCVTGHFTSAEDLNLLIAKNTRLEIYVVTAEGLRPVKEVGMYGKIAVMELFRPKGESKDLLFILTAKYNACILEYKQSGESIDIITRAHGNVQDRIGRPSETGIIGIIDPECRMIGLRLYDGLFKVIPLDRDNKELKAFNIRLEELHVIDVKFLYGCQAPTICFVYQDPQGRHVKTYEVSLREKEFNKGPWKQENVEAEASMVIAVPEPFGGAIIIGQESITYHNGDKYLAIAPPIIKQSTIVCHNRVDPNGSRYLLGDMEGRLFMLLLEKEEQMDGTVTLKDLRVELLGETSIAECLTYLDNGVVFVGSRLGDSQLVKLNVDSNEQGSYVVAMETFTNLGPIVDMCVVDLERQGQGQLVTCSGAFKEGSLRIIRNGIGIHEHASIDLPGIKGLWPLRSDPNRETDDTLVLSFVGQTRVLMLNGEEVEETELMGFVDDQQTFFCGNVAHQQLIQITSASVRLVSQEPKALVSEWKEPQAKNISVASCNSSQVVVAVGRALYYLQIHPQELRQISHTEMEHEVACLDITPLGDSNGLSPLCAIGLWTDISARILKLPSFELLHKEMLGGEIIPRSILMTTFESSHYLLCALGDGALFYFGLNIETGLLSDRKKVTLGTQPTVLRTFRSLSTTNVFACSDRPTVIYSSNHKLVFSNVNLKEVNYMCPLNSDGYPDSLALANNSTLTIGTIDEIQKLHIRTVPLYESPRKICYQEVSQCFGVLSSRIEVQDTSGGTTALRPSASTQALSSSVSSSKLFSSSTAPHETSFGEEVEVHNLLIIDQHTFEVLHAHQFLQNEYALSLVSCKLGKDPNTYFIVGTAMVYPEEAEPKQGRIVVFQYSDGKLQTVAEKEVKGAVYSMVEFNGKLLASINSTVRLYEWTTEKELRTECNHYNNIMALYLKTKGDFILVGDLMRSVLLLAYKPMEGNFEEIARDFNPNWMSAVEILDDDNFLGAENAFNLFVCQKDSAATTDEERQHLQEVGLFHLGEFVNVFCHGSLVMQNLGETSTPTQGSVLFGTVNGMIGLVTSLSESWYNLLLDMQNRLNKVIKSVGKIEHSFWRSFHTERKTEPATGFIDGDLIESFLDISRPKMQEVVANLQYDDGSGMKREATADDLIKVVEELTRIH

In the case of `CNCCOCCc1ccc(NC(=O)NCc2ccc3c(c2)CN(C2CCC(=O)NC2=O)C3=O)cc1Cl` (centres unmarked) [neoDegrader P1, 1-(3-chloro-4-[2-[2-(methylamino)ethoxy]ethyl]phenyl)-3-[[2-(2,6-dioxopiperidin-3-yl)-1-oxo-3H-isoindol-5-yl]methyl]urea], the “durability of GSPT1 depletion” value (MV4-11 cells, 6, 12 and 18 hours) is on record as “transient depletion”. The “decreases in GSPT1 levels” value (MV4-11 cells, as short as 6 hours post-dosing) is “dose-dependent decreases”.
